{
  "source": "patent US4753928A",
  "about": "“Process for obtaining sexual products from mammals suitable for natural or artificial fertilization” (INNOFINANCE Altalanos Innovacios Pengintezet, priority 1985, dated 1988)",
  "key": {"infant female pigs": {"system": "infant female pigs", "assay": "Inducing super-ovulation in infant pigs", "assay_type": "in vivo", "settings": "10 μg twice daily 6 days i.m., 100 μg on 7th day, after 41 hours; 100-day old pigs", "experimental": "20 100-day old infant female pigs were treated for 6 days, twice daily, with 10 μg doses each consisting of D-Phe^6 -Gln^8 -GnRH analogue administered intramuscularly. In the test half side of the ovaries in the control animals was removed and, by using the test method detailed in Example 3, the number of the Graf-follicles and of corpora lutea formed was compared. Occurrence of ovulation was detected by laparoscopy. […] Treatment of these animals produced similar results as described in Examples 1 to 3."}, "female blue fox": {"system": "female blue fox", "assay": "Treatment of female blue fox in seasonal unoestrus for inducing fertile oestrus", "assay_type": "in vivo", "experimental": "Female blue fox in seasonal unoestrus was examined in December under narcosis with the aid of laparoscopy. […] Then the animal had twice daily intramuscular treatment for ten days with a 1 to 5 μg dose of D-Phe^6, Gln^8 -GnRH analogue. On the tenth day another laparoscopy was carried out under narcosis. […] Also in December a rejected female due to mammalian atrophy was similarly treated twice a day with 2 μg each of D-Phe^6, Gln^8 -GnRH analogue the effect of which was followed by looking at changes in condition of the neck of uterus. On the 6th day following first treatment, the neck of uterus opened. At this time the treatment was carried out with 50 μg of active ingredient. 16 hours later conditions of the ovaries were examined with mirroring and a state immediately prior to ovulation was found. Then abdominal cavity was entirely opened, the ovaries were removed and by puncturing ova were removed from a total of 11 Graf-follicles. Six regular, normal ova covered with corona radiata were found."}, "infant female rats": {"system": "infant female rats", "assay": "Super-ovulation induced in infant female rats", "assay_type": "in vivo", "settings": "out of 60 21-day old rats; i.p., 1-8 days, 1 or 2 μg daily or twice daily, finished with 5 or 10 μg", "experimental": "60 pieces of 21-day old infant rats weighing […] were treated with D-Phe^6 -Gln^8 -GnRH in normal saline solution intraperitoneally. The animals, depending on the treatment they were having, were placed into different groups. In the series of treatments lasting 1-8 days, 1 and 2 μg doses, respectively, were administered daily and twice daily. Treatments were finished with 5 and 10 μg doses, respectively.\nAfter treatment all animals were killed with vapour of ether and their ovaries were removed after the animals died and 24 hours after the last treatment. Evaluation was done visually and from hystological samples. We found several developing follicles in the ovaries of the control animals, but not one of them was of Graf-follicle size, and neither corpur luteum, nor corpus haemorrhagicum could be detected. On the other hand, in all treated groups hormonal effect could be seen which made itself evident by the growing of follicles, by their turning into Graf-follicles, by their ovulation and the forming of regular corpus luteum. Enlarging of the oviduct and the uterus was also evident. […] In the group that received for 4 days 2 μg of GnRH analogue twice daily and on the 4th day the 2 μg treatment was followed by a 10 μg dose, in the ovary of all animals immediately before ovulation softened Graf follicles could be observed in large numbers. […]"}, "potential breeding sows": {"system": "potential breeding sows", "assay": "Inducing first successful rutting of female piglets in puberty", "assay_type": "in vivo, pigs", "settings": "treated group of 30", "experimental": "For our tests 60 potential breeding sows were selected from a stock of 200 sows available at the farm, on the basis of best growing vigor and feed conversion determined by industrial technology. These animals were put into 2 random groups of 30 each. Both groups, also according to industrial technology, were kept without food and drink for 24 hours. Animals at time of selection were injected intramuscularly with D-Phe^6, Gln^8 -GnRH analogue diluted in normal saline solution, then injections were repeated with 20 μg doses each from the same analogue twice with 24 hours intervals. The first rutting animal appeared 5 days after selection both in the untreated control group and in the treated group. Both groups were kept in the same sty, air-space, under similar conditions for 26 days as permitted in the industrial farming technology. During this time 3 animals (10%) from the untreated control and 21 animals (70%) from the treated stock rutted successfully. […] In this test series exact timing of ovulation was not amongst aims since only a few boars were available. For this reason, aim of the treatment was \"the first successful rutting\" within 26 days. 10% of the sows in farrow was a result acceptable to industrial farming average, thus the increase to 70% as a result of treatment means a very significant economic advantage."}, "bison bull": {"system": "bison bull", "assay": "Inducing spermiogenesis of bison bull in seasonal oligospermia", "assay_type": "in vivo", "settings": "55th day", "text": "From bison bull belonging to Zoo and weighing 700 kg, under narcosis and by electrical means a sperm sample was obtained and it was established that it was in a seasonal oligospermial state. Symptoms of this were the following: under microscope magnifying 1500 times and used in sperm evaluation the number of sperm found was 5-20 and defective sperms reached 75-80%. The density of the ejaculate was 0.5. Sperms of this quality are unsuitable for fertilization. Thereafter, twice weekly the animal was treated intramuscularly with 200-200 μg dose each of D-phe^6, Gln^8 -GnRH analogue, using the compressed air injection method. On the 55th day following commencement of treatment, under narcosis and with a time lapse of one hour the animal was ejaculated twice. The two ejaculates were combined; their density was 4, their motility 55%. The thus-obtained sperms were deep frozen, then the decrease of motility as a result of deep freezing was checked: this was only 5%."}, "[1]": {"system": "ovary of infant domestic cat", "assay": "Stimulating function of ovary in infant domestic cat (D-Phe6,Gln8-GnRH)", "assay_type": "in vivo, Felis cattus domesticus", "settings": "100 μg i.m. every second day, 4 times; 45 days old kittens", "experimental": "5 kittens each weighing 0.3 kg and being 45 days old were treated with D-Phe^6, Gln^8 -GnRH analogue every second day, altogether 4 times, using 100 μg each of the active ingredient. It was intramuscularly administered after dilution in normal saline solution. Following treatment, ovaries of both sides were removed from the animals under narcosis and visual examination took place. Thereafter the ovaries were fixed in formalin, and then hystological test was carried out. […] Under incrustation developing follicles were found, well definable from the bright, butter-coloured ovary. Some of the follicles were of Graf-follicle size."}, "infant domestic rabbits": {"system": "infant domestic rabbits", "assay": "Inducing super-ovulation in infant domestic rabbits", "assay_type": "in vivo, rabbit", "settings": "5 μg twice daily 3 days i.p., 50 μg on 4th day, after 26 hours; 42-day old rabbits", "experimental": "20 42-day old rabbit whelps of the white pearl variety reared under large scale farming conditions were administered twice daily for three days 5 μg of D-Phe^6, Gln^8 -GnRH analogue intraperitoneally. Then the animals were divided into two groups and the one half of them was treated with 50 μg of active ingredient on the 4th day while the other half was killed with vapour of ether before treatment began. Developed follicles of this group were counted and used as control in determining the effect of the 50 μg dose. From the group kept alive, two animals were selected and through laparoscope probing their ovulation process was monitored for 10 hours while the animals were kept under narcosis (abdominal cavity was mirrored)."}},
  "note": "Where a SMILES comes first, the peptide text is derived from it. [ ]: non-standard residue; d: D form. pGlu = O=C1CC[C@@H](C(=O)O)N1",
  "data": [
    {"smiles": "CC(C)C[C@H](NC(=O)[C@@H](Cc1ccccc1)NC(=O)[C@H](Cc1ccc(O)cc1)NC(=O)[C@H](CO)NC(=O)[C@H](Cc1c[nH]c2ccccc12)NC(=O)[C@H](Cc1c[nH]cn1)NC(=O)[C@@H]1CCC(=O)N1)C(=O)N[C@@H](CCC(N)=O)C(=O)N1CCC[C@H]1C(=O)NCC(N)=O", "note": "[D-Phe^6, Gln^8 -GnRH analogue, D-Phe^6, Gln^8 -GnRH] ([pGlu]HWSY[dF]LQPG-NH2)", "values": [
      {"measurement": "ovulations", "setting": "infant female pigs", "value": "15-36"},
      {"measurement": "regular, normal ova covered with corona radiata found", "setting": "female blue fox; second female", "value": "Six"},
      {"measurement": "day on which the neck of uterus opened", "setting": "female blue fox; second female, 2 μg twice a day", "value": 6, "unit": "days"},
      {"measurement": "Graf-follicles punctured", "setting": "female blue fox; second female, 16 hours after 50 μg", "value": 11},
      {"measurement": "condition of neck of uterus", "setting": "female blue fox; tenth day, same animal", "value": "the neck of uterus was open"},
      {"measurement": "animals that did not react to the treatment", "setting": "infant female rats", "value": 4},
      {"measurement": "animals that rutted successfully within 26 days", "setting": "potential breeding sows; three i.m. injections at 24 h intervals, 20 μg", "value": 21, "unit": "animals"},
      {"measurement": "share of animals that rutted successfully within 26 days", "setting": "potential breeding sows; untreated control 10%", "value": 70, "unit": "%"},
      {"measurement": "decrease of motility as a result of deep freezing", "setting": "bison bull", "value": 5, "unit": "%"},
      {"measurement": "density of ejaculate", "setting": "bison bull; 200 μg i.m. twice weekly, two ejaculates combined", "value": 4},
      {"measurement": "sperm motility", "setting": "bison bull; two ejaculates combined", "value": 55, "unit": "%"},
      {"measurement": "corpora haemorrhagica on ovaries of both sides", "setting": "[1]", "value": "5-7"},
      {"measurement": "ovulations and corpora haemorrhagica in each animal", "setting": "infant domestic rabbits", "value": "30-40"}
    ]}
  ]
}
